Assay [1] deals with Corn (CN). In words: Pre-emergence herbicide test. Conditions: Zea mays, 336 h, two weeks after treatment; for pest or weed control at 4483.4 g/ha: 4 lb/acre. In kind it is in vivo. The method in brief:
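Visual injury/control ratings were made 2 weeks post-spray on corn pots seeded (4 seeds, seed-diameter depth) the day before treatment. Application was a belt-hood spray of 38 gal/acre delivering 8 lbs active per acre, with a 4 lbs/acre rate also formulated. Watering was by sub-irrigation throughout.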

Assay [2] relates to Johnson grass (JG). In words: Pre-emergence herbicide test. In kind it is in vivo, Sorgum helepense. The note with it: Sorghum halepense, 336 h, two weeks after treatment; for pest or weed control at 4483.4 g/ha: 4 lb/acre. The method in brief: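 Visual injury or control rating two weeks post-treatment, after pre-emergence spray of 8 or 4 lbs active per acre (38 gal/acre) onto pots sown the previous day. Greenhouse watering by sub-irrigation only.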

Assay [3] deals with Crabgrass (CG). As to the kind of experiment: Post-emergence herbicide test. In kind it is in vivo, Digitaria sanquinalis. The note with it: Digitaria sanguinalis, post-emergence, 336 h, two weeks after treatment; for pest or weed control at 4483.4 g/ha: 4 lb/acre. Summed up:
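Crabgrass (Digitaria sanquinalis) was surface seeded individually in 3' plastic pots of potting soil, covered with screened soil, and watered by sub-irrigation in greenhouse trays. Planting was staggered so seedlings reached the target stage together. Post-emergence sprays were applied in a hood with a removable belt and fixed nozzle, and control was visually rated two weeks after treatment.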

In assay [4] the test system is Amaranth pigweed (PW). As to the kind of experiment: Post-emergence herbicide test. Conditions: 336 h, two weeks after treatment; for pest or weed control at 4483.4 g/ha: 4 lb/acre. In kind it is in vivo, Amaranthus retroflexus. As for the experimental part: Amaranth pigweed (PW)--Amaranthus retroflexus
All crop and weed species were planted individually in 3' plastic pots containing potting soil. Four seeds each of corn, cotton, and snapbeans were seeded to a depth equal to the diameter of the seed. All other species were surface seeded and sprinkled with screened soil in an amount sufficient to cover the seed. Immediately after planting, all pots were watered by sub-irrigation in greenhouse trays. Pots for the pre-emergence phase were seeded one day before treatment.
Planting dates for the post-emergence phase were varied so that all seedlings would reach the desired stage of development simultaneously. The proper stage of seedling development for treatment in the post-emergence phase is as follows:
Pigweed and turnips: 1 or 2 true leaves above visible cotyledons.
Compounds were tested at rates of application equivalent to 8 lbs. of actual compound per acre in a spray volume of 38 gallons per acre. Spray hood constants required to deliver the above volume are as follows:
Formulations for spray applications were prepared in 50 ml volumes with the following three components:
Formulations for the 4 lbs/acre rate were prepared by adjusting the amount of active ingredient accordingly.
Spray applications were made in a hood containing a removable belt and fixed spray nozzle. For passage through the spray hood, one pot of each specie (pre-emergence phase) was placed on the rear half of the flat. Treatments were removed to the greenhouse after spraying. Watering during the observation period was done only by sub-irrigation.
Two weeks after treatment, pre- and post-emergence injury or control was visually rated, and the results were as shown in the following tables. Pre-emergence data are provided in TABLE III and post-emergence data are provided in TABLE IV, for compounds having the formula illustrated in TABLE I. Correspondingly, pre-emergence and post-emergence data, respectively, are set forth in TABLES V AND VI, for compounds having the formula illustrated in TABLE II.

For assay [5], the system named is Bean (BN). In words: Post-emergence herbicide test. It is filed as in vivo, Phaseolus vulgaris var. Black Valentine. Conditions: Phaseolus vulgaris, post-emergence, 336 h, two weeks after treatment; for pest or weed control at 4483.4 g/ha: 4 lb/acre. The method in brief:
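Bean seedlings (Phaseolus vulgaris var. Black Valentine) were grown in potting soil in 3' pots until the primary leaves expanded. They were then sprayed under a hood with a removable belt and fixed nozzle, using 50 ml formulations. Afterward they were returned to the greenhouse and watered only by sub-irrigation. Percent control was judged visually two weeks after treatment.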

For assay [6], the system named is Cotton (CT). In words: Post-emergence herbicide test. It is filed as in vivo, Gossypium hirsutum var. DPL smooth leaf. Conditions: Gossypium hirsutum, post-emergence, 336 h, two weeks after treatment; for pest or weed control at 4483.4 g/ha: 4 lb/acre. The method in brief: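 This greenhouse post-emergence test measured how well spray treatments controlled cotton. Seedlings of Gossypium hirsutum var. DPL smooth leaf, with expanded cotyledons and a first true leaf 1' in length, were sprayed with 50 ml formulations in a belt-fed spray hood. They were then returned to the greenhouse and watered only by sub-irrigation. Injury was scored visually as % control after two weeks.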

Assay [7] concerns Crabgrass (CG). In words: Pre-emergence herbicide test. It is filed as in vivo, Digitaria sanquinalis. Conditions: Digitaria sanguinalis, pre-emergence, 336 h, two weeks after treatment; for pest or weed control at 4483.4 g/ha: 4 lb/acre. Summed up:
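Crabgrass (Digitaria sanquinalis) was surface seeded in 3' plastic pots of potting soil, covered with screened soil, and watered by sub-irrigation in greenhouse trays. Pots were seeded one day before spraying in a hood with a moving belt and fixed nozzle. Plants stayed in the greenhouse on sub-irrigation, and pre-emergence control was rated visually two weeks after treatment.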

Assay [8] concerns Barnyard grass (BG). In words: Pre-emergence herbicide test. The note with it: Echinochloa crus-galli, 336 h, two weeks after treatment; for pest or weed control at 4483.4 g/ha: 4 lb/acre. It is filed as in vivo. The method in brief: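 Greenhouse pre-emergence spray test: pots seeded one day before treatment received compound at rates of 8 or 4 lb/acre (38 gal/acre). Visual injury/control scores for Echinochloa crus-galli taken at two weeks, with watering by sub-irrigation only.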

Assay [9] relates to Corn (CN). As to the kind of experiment: Post-emergence herbicide test. It is filed as in vivo. The note with it: Zea mays, 336 h, two weeks after treatment; for pest or weed control at 4483.4 g/ha: 4 lb/acre. The method in brief: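 Greenhouse seedlings grown in potting soil and sprayed post-emergence at 8 lbs compound/acre (formulations also made for 4 lbs/acre) in 38 gallons/acre spray volume. Watering by sub-irrigation only. Injury or control rated visually two weeks after treatment.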

In assay [10] the test system is Amaranth pigweed (PW). As to the kind of experiment: Pre-emergence herbicide test. In kind it is in vivo, Amaranthus retroflexus. The note with it: 336 h, two weeks after treatment; for pest or weed control at 4483.4 g/ha: 4 lb/acre. The method in brief:
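Visual injury or control ratings were made at two weeks on pre-emergence pots, sub-irrigated in the greenhouse. Seeds were sown a day before a hood spray delivering 8 lbs/acre (or 4 lbs/acre) of compound in 38 gallons per acre.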

Assay [11] has as its system Johnson grass (JG). As to the kind of experiment: Post-emergence herbicide test. It is filed as in vivo, Sorgum helepense. The note with it: Sorghum halepense, 336 h, two weeks after treatment; for pest or weed control at 4483.4 g/ha: 4 lb/acre. Summed up:
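Visual injury or control scores taken 2 weeks after a post-emergence spray of pot-grown plants. Application was 8 lbs/acre (or 4 lbs/acre) in 38 gal/acre. Plants were held in the greenhouse with sub-irrigation only.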

Assay [12] concerns Bean (BN). In words: Pre-emergence herbicide test. It is filed as in vivo, Phaseolus vulgaris var. Black Valentine. Conditions: Phaseolus vulgaris, 336 h, two weeks after treatment; for pest or weed control at 4483.4 g/ha: 4 lb/acre. The method in brief:
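Visual injury/control ratings were taken two weeks post-spray on sub-irrigated Phaseolus vulgaris var. Black Valentine. Pots were sown a day before treatment. Pre-emergence spray delivered 8 lbs actual compound per acre (or 4 lbs/acre) at 38 gallons per acre.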

The subject of assay [13] is Cotton (CT). As to the kind of experiment: Pre-emergence herbicide test. In kind it is in vivo, Gossypium hirsutum var. DPL smooth leaf. The note with it: Gossypium hirsutum, 336 h, two weeks after treatment; for pest or weed control at 4483.4 g/ha: 4 lb/acre. The method in brief: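 Visual injury/control ratings were taken at two weeks post-spray. Pots seeded a day earlier received compound pre-emergence at 8 lbs/acre, or 4 lbs/acre, in a 38 gallon/acre spray volume, and were then held in the greenhouse, watered only from below.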

The test system of assay [14] is Turnip (TP). In words: Pre-emergence herbicide test. In kind it is in vivo, Brassica sp. Conditions: Brassica rapa, pre-emergence, 336 h, two weeks after treatment; for pest or weed control at 4483.4 g/ha: 4 lb/acre. Summed up: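 In this pre-emergence greenhouse test, turnip was seeded on the surface of potting soil in 3' plastic pots, lightly covered with screened soil, and watered from below. One day later the pots were sprayed in a belt-fed spray hood. Watering continued only by sub-irrigation, and percent control was visually scored two weeks after treatment.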

The subject of assay [15] is Turnip (TP). As to the kind of experiment: Post-emergence herbicide test. The note with it: Brassica rapa, post-emergence, 336 h, two weeks after treatment; for pest or weed control at 4483.4 g/ha: 4 lb/acre. In kind it is in vivo, Brassica sp. Summed up:
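A greenhouse post-emergence herbicide test on turnip. Seeds were sown on the surface of potting soil in 3' plastic pots, lightly covered with screened soil and watered from below. Planting was timed so seedlings had 1 or 2 true leaves above the cotyledons at spraying, done in a hood with a fixed nozzle. Control or injury was scored by eye after two weeks.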

Assay [16] relates to Barnyard grass (BG). As to the kind of experiment: Post-emergence herbicide test. In kind it is in vivo. The note with it: Echinochloa crus-galli, 336 h, two weeks after treatment. The method in brief: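 Greenhouse pot-grown barnyard grass seedlings sprayed post-emergence at 8 lbs active compound per acre (some at 4 lbs/acre) in 38 gallons per acre, then sub-irrigated. Injury or control rated visually two weeks after treatment.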

Usually pest or weed control stands for how far the test organism was held down.

Take `CCCSc1nnc(N(C)C(=O)N(C)C)s1` [Example 66]: the pest or weed control at 2241.7 g/ha in the assay on Corn (CN) [1] (2 lb/acre) is 0%; in the assay with Johnson grass (JG) [2] (2 lb/acre), 20%; in the assay on Amaranth pigweed (PW) [4] (2 lb/acre), 100%; in the assay with Bean (BN) [5] (2 lb/acre) it was 90%; in the assay with Cotton (CT) [6] (2 lb/acre) it was 100%; in the assay on Barnyard grass (BG) [8] (2 lb/acre), 30%. Further, the pest or weed control at 2241.7 g/ha was found to be 100% with Amaranth pigweed (PW) [10] (2 lb/acre); 100% in the assay with Bean (BN) [12] (2 lb/acre); 80% in the assay with Cotton (CT) [13] (2 lb/acre); 50% in the assay on Turnip (TP) [14] (2 lb/acre); 100% in the assay on Turnip (TP) [15] (2 lb/acre); 60% with Barnyard grass (BG) [16] (2 lb/acre). Moreover, the pest or weed control at 4483.4 g/ha with Corn (CN) [1] is 50%; in the assay on Johnson grass (JG) [2], 100%; with Crabgrass (CG) [3], 100%; in the assay on Amaranth pigweed (PW) [4], 100%; in the assay on Bean (BN) [5], 100%; in the assay on Cotton (CT) [6], 100%. Also, the pest or weed control at 4483.4 g/ha was determined as 100% in the assay with Crabgrass (CG) [7]; 100% with Barnyard grass (BG) [8]; 100% in the assay with Corn (CN) [9]; 100% in the assay with Amaranth pigweed (PW) [10]; 60% in the assay with Johnson grass (JG) [11]; 100% in the assay with Bean (BN) [12]. Also, the pest or weed control at 4483.4 g/ha was 100% in the assay on Cotton (CT) [13], 100% in the assay on Turnip (TP) [14], 100% in the assay with Turnip (TP) [15] and 70% with Barnyard grass (BG) [16] (4 lb/acre). Moreover, the pest or weed control in the assay on Crabgrass (CG) [3] (2 lb/acre) amounted to 50%; in the assay on Crabgrass (CG) [7] (2 lb/acre) it was 30%; in the assay with Corn (CN) [9] (2 lb/acre), 30%; in the assay on Johnson grass (JG) [11] (2 lb/acre) it was 50%.
For the molecule `CCOC(=O)C(Sc1nnc(NC(=O)NC)s1)C(=O)OCC` [Example 79], the pest or weed control at 4483.4 g/ha came to 20% in the assay on Corn (CN) [1]; 20% in the assay with Johnson grass (JG) [2]; 30% with Crabgrass (CG) [3]; 40% in the assay on Amaranth pigweed (PW) [4]; 60% in the assay with Bean (BN) [5]; 90% in the assay with Cotton (CT) [6]. For the same molecule, the pest or weed control at 4483.4 g/ha in the assay on Crabgrass (CG) [7] turned out to be 20%; in the assay on Corn (CN) [9], 40%; with Amaranth pigweed (PW) [10], 0%; in the assay with Johnson grass (JG) [11], 30%; in the assay on Bean (BN) [12], 90%; in the assay with Cotton (CT) [13], 50%. Also, the results for the pest or weed control at 4483.4 g/ha in the assay on Turnip (TP) [14] and in the assay on Turnip (TP) [15] were 20% and 40%, respectively.
Consider `CNC(=O)Nc1nnc(SCC#N)s1` [Example 88], for which the pest or weed control at 4483.4 g/ha with Corn (CN) [1] worked out at 10%; in the assay with Johnson grass (JG) [2] it was 10%; with Crabgrass (CG) [3], 20%; in the assay on Amaranth pigweed (PW) [4] it was 20%; in the assay on Bean (BN) [5], 30%; with Cotton (CT) [6], 50%. Further, the pest or weed control at 4483.4 g/ha came out at 10% in the assay with Crabgrass (CG) [7]; 10% in the assay with Barnyard grass (BG) [8]; 20% with Corn (CN) [9]; 10% with Amaranth pigweed (PW) [10]; 20% with Johnson grass (JG) [11]; 100% in the assay with Bean (BN) [12]. Also, the figures for the pest or weed control at 4483.4 g/ha in the assay with Cotton (CT) [13], in the assay on Turnip (TP) [14] and in the assay on Turnip (TP) [15] were 50%, 70% and 40%, respectively.

These data come from patent US4175081A, “5-Substituted thiadiazole ureas” (priority 1977, dated 1979).
